Measured values: PubChem BioAssay AID200 (DTP/NCI, 2004)
Values joined by “and” are separate entries in the source; they are usually repeats but may differ in a detail not shown here. Equal entries are not always repeated. Inconclusive results and toxic doses are left out. Where a SMILES comes first, the peptide text is derived from it.

Tested on: B6C3F1 mice, B16 melanoma ip, median survival T/C
Assay: NCI In Vivo Anticancer Drug Screen. Data for tumor model B16 Melanoma (intraperitoneal) in B6C3F1 mice
Details: endpoint: median survival time, higher = longer survival
Summary of the method: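 Values are T/C ratios: the measurement in treated animals divided by that in vehicle-treated controls, using survival or tumor size in mice carrying transplantable tumors.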

[1] = dose: 6.25 mg/kg/injection, schedule: Q01DX009 (ip), vehicle: Klucel (hydroxypropylcellulose) (HPC)
[2] = dose: 12.5 mg/kg/injection, schedule: Q01DX009 (ip), vehicle: Klucel (hydroxypropylcellulose) (HPC)
[3] = dose: 25.0 mg/kg/injection, schedule: Q01DX009 (ip), vehicle: Klucel (hydroxypropylcellulose) (HPC)
[4] = dose: 12.5 mg/kg/injection, schedule: Q01DX009 (ip), vehicle: saline with Tween-80
[5] = dose: 25.0 mg/kg/injection, schedule: Q01DX009 (ip), vehicle: saline with Tween-80
[6] = dose: 50.0 mg/kg/injection, schedule: Q01DX009 (ip), vehicle: saline with Tween-80
[7] = dose: 100.0 mg/kg/injection, schedule: Q01DX009 (ip), vehicle: saline with Tween-80
[8] = dose: 200.0 mg/kg/injection, schedule: Q01DX009 (ip), vehicle: saline with Tween-80
[9] = dose: 400.0 mg/kg/injection, schedule: Q01DX009 (ip), vehicle: saline with Tween-80
[10] = dose: 12.5 mg/kg/injection, schedule: Q01DX009 (ip), vehicle: saline
[11] = dose: 25.0 mg/kg/injection, schedule: Q01DX009 (ip), vehicle: saline
[12] = dose: 100.0 mg/kg/injection, schedule: Q01DX009 (ip), vehicle: saline
[13] = dose: 200.0 mg/kg/injection, schedule: Q01DX009 (ip), vehicle: saline
[14] = dose: 400.0 mg/kg/injection, schedule: Q01DX009 (ip), vehicle: saline
[15] = dose: 50.0 mg/kg/injection, schedule: Q01DX009 (ip), vehicle: Klucel (hydroxypropylcellulose) (HPC)
[16] = dose: 200.0 mg/kg/injection, schedule: Q01DX009 (ip), vehicle: Klucel (hydroxypropylcellulose) (HPC)
[17] = dose: 50.0 mg/kg/injection, schedule: Q01DX009 (ip), vehicle: saline
[18] = dose: 10.0 mg/kg/injection, schedule: Q01DX009 (ip), vehicle: saline with Tween-80
[19] = dose: 20.0 mg/kg/injection, schedule: Q01DX009 (ip), vehicle: saline with Tween-80

SMILES: COc1cccc2c1C(=O)c1c(O)c3c(c(O)c1C2=O)C[C@@](O)(C(=O)CO)C[C@@H]3OC1CC(N2CCOCC2C#N)C(O)C(C)O1 (stereo not given in full)
- T/C (dose: 9.38 micrograms/kg/injection, schedule: Q01DX001 (ip), vehicle: water): 156 % of control
- T/C (dose: 18.75 micrograms/kg/injection, schedule: Q01DX001 (ip), vehicle: water): 153 % of control
- T/C (dose: 37.5 micrograms/kg/injection, schedule: Q01DX001 (ip), vehicle: water): 156 % of control

SMILES: NC(Cc1ccc(N(CCCl)Cc2ccccc2)cc1)C(=O)O (stereo not given)
- T/C (dose: 0.78 mg/kg/injection, schedule: Q01DX009 (ip), vehicle: distilled water + Tween-80): 99 % of control
- T/C (dose: 1.56 mg/kg/injection, schedule: Q01DX009 (ip), vehicle: distilled water + Tween-80): 108 % of control
- T/C (dose: 3.12 mg/kg/injection, schedule: Q01DX009 (ip), vehicle: distilled water + Tween-80): 115 % of control and 100 % of control
- T/C (dose: 6.25 mg/kg/injection, schedule: Q01DX009 (ip), vehicle: distilled water + Tween-80): 123 % of control and 103 % of control
- T/C (dose: 12.5 mg/kg/injection, schedule: Q01DX009 (ip), vehicle: distilled water + Tween-80): 110 % of control
- T/C (dose: 25.0 mg/kg/injection, schedule: Q01DX009 (ip), vehicle: distilled water + Tween-80): 118 % of control

SMILES: C=C(OC1C(C)=C2C(C1OC(=O)CCCCCCC)C(C)(OC(C)=O)CC(OC(=O)CCC)C1(O)C2OC(=O)C1(C)O)/C(C)=C/C (stereo not given)
- T/C (dose: 0.09 mg/kg/injection, schedule: Q01DX009 (ip), vehicle: Klucel (hydroxypropylcellulose) (HPC)): 99 % of control
- T/C (dose: 0.18 mg/kg/injection, schedule: Q01DX009 (ip), vehicle: Klucel (hydroxypropylcellulose) (HPC)): 114 % of control
- T/C (dose: 0.37 mg/kg/injection, schedule: Q01DX009 (ip), vehicle: Klucel (hydroxypropylcellulose) (HPC)): 102 % of control
- T/C (dose: 0.75 mg/kg/injection, schedule: Q01DX009 (ip), vehicle: Klucel (hydroxypropylcellulose) (HPC)): 114 % of control

SMILES: O=NN(CCCl)C(=O)Oc1cc(Cl)c(Cl)cc1Cl
- T/C (dose: 3.12 mg/kg/injection, schedule: Q01DX009 (ip), vehicle: Klucel (hydroxypropylcellulose) (HPC)): 99 % of control
- T/C [1]: 99 % of control
- T/C [2]: 188 % of control
- T/C [3]: 169 % of control and 205 % of control

SMILES: CC(C#N)(C#N)N=Nc1ccc(Cl)cc1Cl
- T/C [4]: 98 % of control
- T/C [5]: 95 % of control
- T/C [6]: 95 % of control
- T/C [7]: 95 % of control
- T/C [8]: 110 % of control
- T/C [9]: 89 % of control

SMILES: OC(CCl)CN1CC[N+]2(CC1)CC[N+]1(CCN(CC(O)CCl)CC1)CC2 (stereo not given)
- T/C (dose: 4.68 mg/kg/injection, schedule: Q01DX009 (ip), vehicle: saline): 118 % of control
- T/C (dose: 9.37 mg/kg/injection, schedule: Q01DX009 (ip), vehicle: saline): 106 % of control
- T/C [10]: 172 % of control
- T/C (dose: 18.75 mg/kg/injection, schedule: Q01DX009 (ip), vehicle: saline): 98 % of control
- T/C [11]: 183 % of control
- T/C (dose: 37.5 mg/kg/injection, schedule: Q01DX009 (ip), vehicle: saline): 106 % of control

SMILES: CC(=O)OC1=C(Cl)CCc2ccccc21
- T/C (dose: 37.5 mg/kg/injection, schedule: Q01DX009 (ip), vehicle: saline with Tween-80): 115 % of control
- T/C (dose: 75.0 mg/kg/injection, schedule: Q01DX009 (ip), vehicle: saline with Tween-80): 96 % of control
- T/C (dose: 150.0 mg/kg/injection, schedule: Q01DX009 (ip), vehicle: saline with Tween-80): 98 % of control

SMILES: O=S(=O)(O)C1=CC(=N\Cl)/C=CC/1=N/Cl
- T/C (dose: 50.0 mg/kg/injection, schedule: Q01DX009 (ip), vehicle: saline + Tween-80 + alcohol): 100 % of control
- T/C (dose: 100.0 mg/kg/injection, schedule: Q01DX009 (ip), vehicle: saline + Tween-80 + alcohol): 100 % of control

SMILES: CCCC(C(CC)CNC(=O)Nc1cccc2ccccc12)N(C)C(=O)Nc1cccc2ccccc12 (stereo not given)
- T/C [6]: 99 % of control
- T/C [7]: 95 % of control
- T/C [8]: 102 % of control
- T/C [9]: 95 % of control

SMILES: CN(C)CC(=O)c1ccc(O)c(O)c1
- T/C [12]: 104 % of control
- T/C [13]: 114 % of control and 102 % of control
- T/C [14]: 122 % of control and 108 % of control

SMILES: O=NNc1ccccn1
- T/C (dose: 1.56 mg/kg/injection, schedule: Q01DX009 (ip), vehicle: water): 120 % of control and 96 % of control
- T/C (dose: 3.12 mg/kg/injection, schedule: Q01DX009 (ip), vehicle: water): 116 % of control and 120 % of control and 124 % of control

SMILES: CCOc1ccccc1C(=O)Nc1ccc(Br)cc1
- T/C [15]: 117 % of control
- T/C [16]: 117 % of control

SMILES: COc1cccc2c1C(=O)c1c(O)c3c(c(O)c1C2=O)C[C@@](O)(C(C)=O)C[C@@H]3OC1CC(N2CCCCC2)C(O)C(C)O1 (stereo not given in full)
- T/C (dose: 0.78 mg/kg/injection, schedule: Q01DX001 (ip), vehicle: water): 105 % of control
- T/C (dose: 1.56 mg/kg/injection, schedule: Q01DX001 (ip), vehicle: water): 115 % of control and 121 % of control
- T/C (dose: 3.12 mg/kg/injection, schedule: Q01DX001 (ip), vehicle: water): 116 % of control and 121 % of control

SMILES: O=C(O)CCC(NC(=O)OCc1ccccc1)C(=O)NCC(=O)O (stereo not given) (HELM PEPTIDE1{[O=C(OCc1ccccc1)[*:2]].[O=C(O)CCC(N[*:1])C(=O)[*:2]].G}$$$$V2.0)
- T/C [11]: 102 % of control
- T/C [17]: 97 % of control
- T/C [12]: 107 % of control
- T/C [13]: 113 % of control
- T/C [14]: 112 % of control

SMILES: Nc1nc2c(ncn2C2OC(CO)C(O)C2N)c(=O)[nH]1 (stereo not given)
- T/C (dose: 3.12 mg/kg/injection, schedule: Q01DX009 (ip), vehicle: saline with Tween-80): 97 % of control
- T/C (dose: 6.25 mg/kg/injection, schedule: Q01DX009 (ip), vehicle: saline with Tween-80): 90 % of control
- T/C [4]: 107 % of control
- T/C [5]: 112 % of control
- T/C [6]: 97 % of control
- T/C [7]: 107 % of control
- T/C [8]: 104 % of control

SMILES: N#Cc1ccc(NC(=O)Nc2nccs2)cc1
- T/C (dose: 100.0 mg/kg/injection, schedule: Q01DX009 (ip), vehicle: distilled water + Tween-80): 150 % of control

SMILES: CC1C(=O)c2cc3c(cc2CCN(C)Cc2c1ccc1c2OCO1)OCO3 (stereo not given)
- T/C (dose: 5.0 mg/kg/injection, schedule: Q01DX009 (ip), vehicle: saline with Tween-80): 100 % of control
- T/C [18]: 104 % of control
- T/C [19]: 103 % of control

SMILES: [Cl][Pt+2][Cl].[NH-]c1ccc([N+](=O)[O-])cc1[NH-]
- T/C [18]: 107 % of control
- T/C [19]: 105 % of control
- T/C (dose: 40.0 mg/kg/injection, schedule: Q01DX009 (ip), vehicle: saline with Tween-80): 118 % of control
- T/C (dose: 80.0 mg/kg/injection, schedule: Q01DX009 (ip), vehicle: saline with Tween-80): 116 % of control

SMILES: C=C1C(O)C2(O)OCC34C(CC5C(C)=CC(=O)C(O)C5(C)C23)OC(=O)C(OC(=O)C(C)(O)CC)C14 (stereo not given)
- T/C (dose: 0.13 mg/kg/injection, schedule: Q01DX009 (ip), vehicle: saline + alcohol): 89 % of control
- T/C (dose: 0.25 mg/kg/injection, schedule: Q01DX009 (ip), vehicle: saline + alcohol): 110 % of control and 101 % of control
- T/C (dose: 0.5 mg/kg/injection, schedule: Q01DX009 (ip), vehicle: saline + alcohol): 103 % of control
- T/C (dose: 1.0 mg/kg/injection, schedule: Q01DX009 (ip), vehicle: saline + alcohol): 115 % of control

SMILES: Cc1ccc2c(ccc(CC(=S)[S-])[n+]2C)c1
- T/C [1]: 92 % of control and 93 % of control
- T/C [2]: 92 % of control and 99 % of control
- T/C [3]: 87 % of control and 88 % of control
- T/C [15]: 89 % of control

SMILES: O=[N+]([O-])c1nccn1CC(O)CO (stereo not given)
- T/C [10]: 91 % of control and 101 % of control
- T/C [11]: 102 % of control and 107 % of control
- T/C [17]: 95 % of control and 97 % of control
- T/C [12]: 111 % of control and 93 % of control
- T/C [13]: 95 % of control and 98 % of control
- T/C [14]: 91 % of control and 107 % of control

SMILES: C[As](C)SCCC(N)C(=O)NC(CCS[As](C)C)C(=O)O (stereo not given)
- T/C [1]: 86 % of control
- T/C [2]: 91 % of control
- T/C [3]: 96 % of control
- T/C [15]: 96 % of control

SMILES: CCOC(=O)c1[nH]c2cccc3c2c1CC(Br)C3=O (stereo not given)
- T/C (dose: 12.0 mg/kg/injection, schedule: Q01DX009 (ip), vehicle: saline with Tween-80): 98 % of control
- T/C [5]: 93 % of control
- T/C [6]: 100 % of control

SMILES: CC(C)(C)OC(=O)NC(Cc1ccc(O)cc1)C(=O)ON1C(=O)CCC1=O (stereo not given)
- T/C (dose: 100.0 mg/kg/injection, schedule: Q01DX009 (ip), vehicle: Klucel (hydroxypropylcellulose) (HPC)): 101 % of control
- T/C [16]: 96 % of control

SMILES: O=c1[nH]cnc2c1nnn2C1OC(CO)C(O)C1O (stereo not given)
- T/C [11]: 96 % of control and 101 % of control
- T/C [17]: 116 % of control and 92 % of control
- T/C [12]: 104 % of control
- T/C [13]: 100 % of control
